Measurements as given in the Kinase Knowledgebase extract (Sharma et al. 2016).

Target: MAPK14 (UniProt Q16539)
Test: Inhibition of MAPK14 Kinase Activity

MAPK14, sequence (Q16539 whole entry, looked up): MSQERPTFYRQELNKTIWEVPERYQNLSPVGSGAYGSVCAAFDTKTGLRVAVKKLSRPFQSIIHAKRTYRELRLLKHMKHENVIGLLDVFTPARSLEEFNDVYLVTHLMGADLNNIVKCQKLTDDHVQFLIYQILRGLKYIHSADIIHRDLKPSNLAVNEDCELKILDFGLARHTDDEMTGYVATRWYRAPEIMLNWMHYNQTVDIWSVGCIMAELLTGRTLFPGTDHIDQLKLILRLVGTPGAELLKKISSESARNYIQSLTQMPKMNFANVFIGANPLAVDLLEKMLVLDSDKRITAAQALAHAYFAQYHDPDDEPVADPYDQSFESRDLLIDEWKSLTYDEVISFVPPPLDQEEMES

Row | Compound | IC50 [µM]
1 | CC[C@H](CO)n1cnc(-c2ccc(F)cc2)c1-c1ccnc(OC)n1 | < 50
2 | CC[C@H](CO)n1cnc(-c2ccc(F)cc2)c1-c1ccnc(NC)n1 | < 50
3 | CNc1nccc(-c2c(-c3ccc(F)cc3)ncn2[C@H](CO)c2ccccc2)n1 | < 50
4 | CCCSc1nccc(-c2c(-c3ccc(F)cc3)ncn2[C@@H](CO)c2ccccc2)n1 | < 50
5 | COc1nccc(-c2c(-c3ccc(F)cc3)ncn2[C@H](CO)Cc2ccccc2)n1 | < 50
6 | CCCSc1nccc(-c2c(-c3ccc(F)cc3)ncn2[C@H](CO)c2ccccc2)n1 | < 50
7 | CNc1nccc(-c2c(-c3ccc(F)cc3)ncn2[C@@H](CO)c2ccccc2)n1 | < 50
8 | CCCSc1nccc(-c2c(-c3ccc(F)cc3)ncn2C(C)CC(=O)OC)n1 (stereo unspecified) | < 50
9 | COc1nccc(-c2c(-c3ccc(F)cc3)ncn2[C@@H](CO)Cc2ccccc2)n1 | < 50
10 | CCCSc1nccc(-c2c(-c3ccc(F)cc3)ncn2C(CO)CO)n1 | < 50
11 | COc1nccc(-c2c(-c3ccc(F)cc3)ncn2[C@@H](CO)c2ccccc2)n1 | < 50
12 | CC[C@@H](CO)n1cnc(-c2ccc(F)cc2)c1-c1ccnc(OC)n1 | < 50
13 | COc1nccc(-c2c(-c3ccc(F)cc3)ncn2C(C)CO)n1 (stereo unspecified) | < 50
14 | COc1nccc(-c2c(-c3ccc(F)cc3)ncn2C(CO)CO)n1 | < 50
15 | COc1nccc(-c2c(-c3ccc(F)cc3)ncn2C(C)CN(C)C)n1 (stereo unspecified) | < 50
16 | CCCSc1nccc(-c2c(-c3ccc(F)cc3)ncn2[C@H](CC)CO)n1 | < 50

Now from value to compound:

Row | IC50 [µM] | Compound
17 | < 50 | CNc1nccc(-c2c(-c3ccc(F)cc3)ncn2C(C)CO)n1 (stereo unspecified)
18 | < 50 | COc1nccc(-c2c(-c3ccc(F)cc3)ncn2[C@H](CO)c2ccccc2)n1
19 | < 50 | CCCSc1nccc(-c2c(-c3ccc(F)cc3)ncn2[C@@H](C)CO)n1
20 | < 50 | CC[C@@H](CO)n1cnc(-c2ccc(F)cc2)c1-c1ccnc(NC)n1
21 | < 50 | CCCSc1nccc(-c2c(-c3ccc(F)cc3)ncn2C(C)CN(C)C)n1 (stereo unspecified)
22 | < 50 | C[C@@H](CO)n1cnc(-c2ccc(F)cc2)c1-c1ccncn1
23 | < 50 | COc1nccc(-c2c(-c3ccc(F)cc3)ncn2C(C)COc2ccccc2)n1 (stereo unspecified)
24 | < 50 | C[C@@H](CO)n1cnc(-c2ccc(F)cc2)c1-c1ccnc(Nc2ccccc2)n1
25 | < 50 | CCCSc1nccc(-c2c(-c3ccc(F)cc3)ncn2[C@H](C)CO)n1
26 | < 50 | CCCSc1nccc(-c2c(-c3ccc(F)cc3)ncn2[C@@H](CC)CO)n1
